From patent US12435087B2, “Modulators of DCN-1 and methods of use thereof” (Cellarity, Inc., priority 2023, dated 2025)
Where two headings read alike, the source gives them in different places.

What was measured:
[1] = target: DCN1 (DCUND1) protein PONY domain (Homo sapiens (Human), UniProt Q96GG9); assay: TR-FRET assay (binding to DCN-1, displacement of FAM-labeled probe)
How it was run: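 Compounds read at 1, 5 and 24 h, 0.1% final DMSO, by TR-FRET between terbium-streptavidin on biotinylated DCN1 PONY domain (E. coli) and a FAM-tagged non-covalent inhibitor probe. Two setups used, 5 nM protein with 20 nM labelled probe, or 0.31 nM protein with 100 nM labelled plus 800 nM unlabelled probe; buffer had TritonX and 200 mM NaCl. % activity relative to high (with probe) and low (without probe) controls.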

DCN1 protein = DCN1 protein (Homo sapiens (Human), UniProt Q96GG9); assay: Intact protein MS analysis with the RapidFire-TOF system (covalent adduct formation); format: binding; details: 400 nM DCN1, incubated at room temperature for 3 hours
How it was run: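 Tag-free His-TEV-DCN1 expressed in E. coli at 400 nM in 25 mM Tris-HCl, 200 mM NaCl, 1 mM DTT, incubated with 11 compound concentrations at room temperature for 3 h unless otherwise specified. Quenched with 0.2% formic acid; intact-protein RapidFire Q-TOF MS, deconvoluted to detect parent and compound-adduct masses.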

[2] = 24 hr after treatment with compound, read-out: TR FRET IC50 24 hr
[3] = read-out: TR FRET IC50 1 hr, 1 hr after treatment with compound
[4] = TR FRET IC50 1 hr (nM), 1 hr after treatment with compound

Sequence of DCN1 protein (Q96GG9 whole entry): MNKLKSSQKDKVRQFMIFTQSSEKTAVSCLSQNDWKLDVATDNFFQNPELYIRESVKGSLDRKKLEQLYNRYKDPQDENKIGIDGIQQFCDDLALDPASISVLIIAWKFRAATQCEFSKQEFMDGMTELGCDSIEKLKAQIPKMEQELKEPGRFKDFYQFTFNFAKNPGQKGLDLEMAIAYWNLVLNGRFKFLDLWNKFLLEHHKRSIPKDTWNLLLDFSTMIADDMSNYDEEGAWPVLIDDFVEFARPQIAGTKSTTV
Sequence of DCN1 (DCUND1) protein PONY domain (Q96GG9 60-248): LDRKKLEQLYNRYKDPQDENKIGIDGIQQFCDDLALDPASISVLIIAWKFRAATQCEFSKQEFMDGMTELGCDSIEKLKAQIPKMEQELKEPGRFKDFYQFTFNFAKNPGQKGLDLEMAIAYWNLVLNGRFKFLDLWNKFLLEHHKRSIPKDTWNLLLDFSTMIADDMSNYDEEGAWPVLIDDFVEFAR

Row | Structure (SMILES) | IC50 [1, 2] | IC50 [1, 3] | Emax (DCN1 protein) | IC50 [1, 4]
1 | C=C(CN1CC2(COC2)C1)C(=O)NCc1cccc([C@@H]2c3cnn(-c4ccccc4)c3N(CC)C(=O)[C@H]2NC(=O)c2cccc(C(F)(F)F)c2)c1 [Compound I-6] | ≤ 200 nM | ≤ 200 nM | 80 to 100% | 
2 | C=C(CN1CC(F)(F)C1)C(=O)NCc1cccc([C@@H]2c3cnn(-c4ccccc4)c3N(CC)C(=O)[C@H]2NC(=O)c2cccc(C(F)(F)F)c2)c1 [Compound I-14] | ≤ 200 nM | ≤ 200 nM | 80 to 100% | 
3 | CCN1C(=O)[C@@H](NC(=O)c2cccc(C(F)(F)F)c2)[C@H](c2cccc(NC(=O)C3=C(C(=O)OC)CC3)c2)c2c(C)nn(-c3ccccc3)c21 [Compound I-34] | ≤ 200 nM | ≤ 200 nM | 80 to 100% | 
4 | C=C(CN1CCC(F)(F)C1)C(=O)NCc1cccc([C@@H]2c3cnn(-c4ccccc4)c3N(CC)C(=O)[C@H]2NC(=O)c2cccc(C(F)(F)F)c2)c1 [Compound I-44] | ≤ 200 nM |  | 80 to 100% | 200 to 1000 nM
5 | C=C(CN1CCOCC1)C(=O)NCc1cccc([C@@H]2c3cnn(-c4ccccc4)c3N(CC)C(=O)[C@H]2NC(=O)c2cccc(C(F)(F)F)c2)c1 [Compound I-62] | ≤ 200 nM | ≤ 200 nM | 80 to 100% | 
6 | C=C(CN(C)C1COC1)C(=O)NCc1cccc([C@@H]2c3cnn(-c4ccccc4)c3N(CC)C(=O)[C@H]2NC(=O)c2cccc(C(F)(F)F)c2)c1 [Compound I-66] | ≤ 200 nM | ≤ 200 nM | 80 to 100% | 
7 | C=C(CN1CCOCC1)C(=O)NCc1cccc([C@@H]2c3cnn(-c4ccccc4)c3N(CC)C(=O)[C@H]2NC(=O)c2nccc(C(F)(F)F)n2)c1 [Compound I-82] | ≤ 200 nM | ≤ 200 nM | 80 to 100% | 
8 | C=C(CN1CCOCC1)C(=O)NCc1cccc([C@@H]2c3cnn(-c4ccccc4)c3N(CC)C(=O)[C@H]2NC(=O)c2ccnn2C(F)(F)F)c1 [Compound I-86] | 1000 to 3000 nM |  | 0 to 30% | 1000 to 3000 nM
9 | C=C(CN1CCOCC1)C(=O)NCc1cccc([C@@H]2c3cnn(-c4ccccc4)c3N(CC)C(=O)[C@H]2NC(=O)c2ccn(C(F)(F)F)n2)c1 [Compound I-135] | ≤ 200 nM | ≤ 200 nM | 80 to 100% | 
10 | CCN1C(=O)[C@@H](NC(=O)c2cccc(C(F)(F)F)c2)[C@H](c2cccc(NC(=O)/C=C/CN(C)C)n2)c2cnn(-c3ccccc3)c21 [Compound I-214] | ≤ 200 nM |  | 80 to 100% | 200 to 1000 nM
11 | C=C(CN1CCOCC1)C(=O)NCc1cccc([C@@H]2c3c(C)nn(-c4ccccc4)c3N(CC)C(=O)[C@H]2NC(=O)c2cccc(C(F)(F)F)c2)c1 [Compound I-215] | ≤ 200 nM | ≤ 200 nM | 80 to 100% | 
12 | C=C(CN1CCN(C2COC2)CC1)C(=O)NCc1cccc([C@@H]2c3cnn(-c4ccccc4)c3N(CC)C(=O)[C@H]2NC(=O)c2cccc(C(F)(F)F)c2)n1 [Compound I-216] | ≤ 200 nM |  | 80 to 100% | 200 to 1000 nM
13 | C=C(C(=O)NCc1cccc([C@@H]2c3cnn(-c4ccccc4)c3N(CC)C(=O)[C@H]2NC(=O)c2nccc(C(F)(F)F)n2)c1)C(C)N(C)C1COC1 (some centres unmarked) [Compound I-217] | ≤ 200 nM | ≤ 200 nM | 80 to 100% | 
14 | C=C(CN1CCN(C2COC2)CC1)C(=O)N(C)Cc1cccc([C@@H]2c3cnn(-c4ccccc4)c3N(CC)C(=O)[C@H]2NC(=O)c2cccc(C(F)(F)F)c2)c1 [Compound I-218] | ≤ 200 nM |  | 80 to 100% | ≤ 200 nM
15 | C=C(CN1CC2(COC2)C1)C(=O)N(C)Cc1cccc([C@@H]2c3cnn(-c4ccccc4)c3N(CC)C(=O)[C@H]2NC(=O)c2cccc(C(F)(F)F)c2)c1 [Compound I-219] | ≤ 200 nM |  | 80 to 100% | 200 to 1000 nM
16 | C/C=C(\CN1CCN(C2COC2)CC1)C(=O)NCc1cccc([C@@H]2c3cnn(-c4ccccc4)c3N(CC)C(=O)[C@H]2NC(=O)c2nccc(C(F)(F)F)n2)c1 [Compound I-220] | ≤ 200 nM |  | 80 to 100% | 200 to 1000 nM
17 | C=C(C(=O)NCc1cccc([C@@H]2c3cnn(-c4ccccc4)c3N(CC)C(=O)[C@H]2NC(=O)c2nccc(C(F)(F)F)n2)c1)C(C)N1CC2(COC2)C1 (stereo partly drawn) [Compound I-221, N-((4R,5S)-7-ethyl-4-(3-((2-methylene-3-(2-oxa-6-azaspiro[3.3]heptan-6-yl)butanamido)methyl)phenyl)-6-oxo-1-phenyl-4,5,6,7-tetrahydro-1H-pyrazolo[3,4-b]pyridin-5-yl)-4-(trifluoromethyl)pyrimidine-2-carboxamide] | ≤ 200 nM | ≤ 200 nM | 80 to 100% | 
18 | C/C=C(\CN1CCN(C2COC2)CC1)C(=O)NCc1cccc([C@@H]2c3cnn(-c4ccccc4)c3N(CC)C(=O)[C@H]2NC(=O)c2cccc(C(F)(F)F)c2)c1 [Compound I-222] | ≤ 200 nM |  | 80 to 100% | 200 to 1000 nM
19 | C=C(CN1CCN(C2COC2)CC1)C(=O)N(C)Cc1cccc([C@@H]2c3cnn(-c4ccccc4)c3N(CC)C(=O)[C@H]2NC(=O)c2nccc(C(F)(F)F)n2)c1 [Compound I-223] | ≤ 200 nM | ≤ 200 nM | 80 to 100% | 
20 | CCN1C(=O)[C@@H](NC(=O)c2nccc(C(F)(F)F)n2)[C@H](c2cccc(NC(=O)C3=CCN(C)C3)c2)c2c(C)nn(-c3ccccc3)c21 [Compound I-224] | ≤ 200 nM |  | 80 to 100% | 200 to 1000 nM
21 | CCN1CC=C(C(=O)Nc2cccc([C@@H]3c4c(C)nn(-c5ccccc5)c4N(CC)C(=O)[C@H]3NC(=O)c3nccc(C(F)(F)F)n3)c2)C1 [Compound I-225] |  |  | 80 to 100% | 200 to 1000 nM
22 | CCN1C(=O)[C@@H](NC(=O)c2nccc(C(F)(F)F)n2)[C@H](c2cccc(NC(=O)C3=CCN(C4COC4)C3)c2)c2c(C)nn(-c3ccccc3)c21 [Compound I-226] | 200 to 1000 nM |  | 0 to 30% | 1000 to 3000 nM
23 | CCN1CC=C(C(=O)Nc2cccc([C@@H]3c4c(C)nn(-c5ccccc5)c4N(CC)C(=O)[C@H]3NC(=O)c3ccn(C(F)(F)F)n3)c2)C1 [Compound I-227] | ≤ 200 nM |  | 80 to 100% | 200 to 1000 nM
24 | C=C(CN1CCC(F)(F)C1)C(=O)Nc1cccc([C@@H]2c3c(C)nn(-c4ccccc4)c3N(CC)C(=O)[C@H]2NC(=O)c2nccc(C(F)(F)F)n2)c1 [Compound I-228] | ≤ 200 nM | ≤ 200 nM | 80 to 100% | 
25 | C/C=C(\CN1CCN(C2COC2)CC1)C(=O)NCc1cccc([C@@H]2c3cnn(-c4ccccc4)c3N(CC)C(=O)[C@H]2NC(=O)c2ccn(C(F)(F)F)n2)c1 [Compound I-230A, N-((4R,5S)-7-ethyl-4-(3-(((E)-2-((4-(oxetan-3-yl)piperazin-1-yl)methyl)but-2-enamido)methyl)phenyl)-6-oxo-1-phenyl-4,5,6,7-tetrahydro-1H-pyrazolo[3,4-b]pyridin-5-yl)-1-(trifluoromethyl)-1H-pyrazole-3-carboxamide] | ≤ 200 nM |  | 80 to 100% | 200 to 1000 nM
26 | C=C(C(=O)NCc1cccc([C@@H]2c3cnn(-c4ccccc4)c3N(CC)C(=O)[C@H]2NC(=O)c2csc(C(F)(F)F)n2)c1)C(C)(C)N(C)C1COC1 [Compound I-231, N-((4R,5S)-7-ethyl-4-(3-((3-methyl-3-(methyl(oxetan-3-yl)amino)-2-methylenebutanamido)methyl)phenyl)-6-oxo-1-phenyl-4,5,6,7-tetrahydro-1H-pyrazolo[3,4-b]pyridin-5-yl)-2-(trifluoromethyl)thiazole-4-carboxamide] | ≤ 200 nM | ≤ 200 nM | 80 to 100% | 
27 | C/C=C(\CN1CCN(C2COC2)CC1)C(=O)Nc1cccc([C@@H]2c3cnn(-c4ccccc4)c3N(CC)C(=O)[C@H]2NC(=O)c2nccc(C(F)(F)F)n2)c1 [Compound I-232, N-((4R,5S)-7-ethyl-4-(3-((E)-2-((4-(oxetan-3-yl)piperazin-1-yl)methyl)but-2-enamido)phenyl)-6-oxo-1-phenyl-4,5,6,7-tetrahydro-1H-pyrazolo[3,4-b]pyridin-5-yl)-4-(trifluoromethyl)pyrimidine-2-carboxamide] | ≤ 200 nM |  | 80 to 100% | ≤ 200 nM
28 | C/C=C(\CN1CCN(C2COC2)CC1)C(=O)Nc1cccc([C@@H]2c3cnn(-c4ccccc4)c3N(CC)C(=O)[C@H]2NC(=O)c2ccn(C3CC3)n2)c1 [Compound I-233] | ≤ 200 nM |  | 80 to 100% | ≤ 200 nM
